The values that follow come from ChEMBL document CHEMBL1139608, “Non-hydroxamate 5-phenylpyrimidine-2,4,6-trione derivatives as selective inhibitors of tumor necrosis factor-alpha converting enzyme” (Bioorg Med Chem Lett, 2005).

One experiment addresses T1, Interstitial collagenase (Homo sapiens, UniProt P03956).
T1 sequence (P03956 whole entry): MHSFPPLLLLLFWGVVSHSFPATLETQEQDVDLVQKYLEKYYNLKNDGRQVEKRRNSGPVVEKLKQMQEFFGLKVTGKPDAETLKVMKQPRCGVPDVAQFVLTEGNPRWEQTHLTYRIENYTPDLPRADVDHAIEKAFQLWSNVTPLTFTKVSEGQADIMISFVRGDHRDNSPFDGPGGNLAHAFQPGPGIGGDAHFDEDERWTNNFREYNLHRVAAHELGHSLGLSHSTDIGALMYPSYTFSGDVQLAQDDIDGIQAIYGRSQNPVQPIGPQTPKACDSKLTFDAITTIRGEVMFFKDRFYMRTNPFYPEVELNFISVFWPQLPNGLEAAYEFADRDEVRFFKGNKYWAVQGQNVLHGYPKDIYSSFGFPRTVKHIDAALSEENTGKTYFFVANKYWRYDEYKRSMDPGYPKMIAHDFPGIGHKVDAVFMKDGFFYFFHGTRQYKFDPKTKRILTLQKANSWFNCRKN
As to the kind of experiment: In vitro binding affinity against matrix metalloprotease 1.

A further experiment deals with Collagenase 3 (Homo sapiens, UniProt P45452). Briefly: In vitro binding affinity against matrix metalloprotease 13.
Experiment [1] addresses Disintegrin and metalloproteinase domain-containing protein 17 (Homo sapiens, UniProt P78536). Briefly: In vitro inhibitory concentration against human tumor necrosis factor-alpha converting enzyme.
For experiment [2], the target named is 72 kDa type IV collagenase (Homo sapiens, UniProt P08253). As to the kind of experiment: In vitro binding affinity against matrix metalloprotease 2.
The nature of experiment [3]: In vitro percent inhibition against aggrecanase at the concentration of 1 uM.
Experiment [4] addresses Matrix metalloproteinase-9 (Homo sapiens, UniProt P14780). As to the kind of experiment: In vitro binding affinity against matrix metalloprotease 9.

72 kDa type IV collagenase, sequence (P08253 whole entry): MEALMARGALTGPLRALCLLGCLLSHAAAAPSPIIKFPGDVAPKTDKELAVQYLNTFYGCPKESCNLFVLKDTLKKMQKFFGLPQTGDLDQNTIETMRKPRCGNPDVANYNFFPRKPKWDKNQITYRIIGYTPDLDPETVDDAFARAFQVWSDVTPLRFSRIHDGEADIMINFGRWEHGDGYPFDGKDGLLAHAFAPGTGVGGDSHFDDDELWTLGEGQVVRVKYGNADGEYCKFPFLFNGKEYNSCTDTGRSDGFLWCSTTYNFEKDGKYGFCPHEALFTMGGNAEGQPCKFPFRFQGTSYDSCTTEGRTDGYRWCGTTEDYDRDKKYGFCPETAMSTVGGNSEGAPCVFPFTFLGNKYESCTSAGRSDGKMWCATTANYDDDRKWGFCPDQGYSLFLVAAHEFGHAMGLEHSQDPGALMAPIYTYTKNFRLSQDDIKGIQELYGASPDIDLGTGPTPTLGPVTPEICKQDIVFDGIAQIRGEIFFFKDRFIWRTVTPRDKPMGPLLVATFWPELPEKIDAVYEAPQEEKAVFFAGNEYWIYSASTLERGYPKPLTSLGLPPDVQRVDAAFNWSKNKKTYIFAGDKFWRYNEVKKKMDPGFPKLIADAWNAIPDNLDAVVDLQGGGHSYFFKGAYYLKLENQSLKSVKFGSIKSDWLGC
Disintegrin and metalloproteinase domain-containing protein 17, sequence (P78536 whole entry, the tested form may be a part): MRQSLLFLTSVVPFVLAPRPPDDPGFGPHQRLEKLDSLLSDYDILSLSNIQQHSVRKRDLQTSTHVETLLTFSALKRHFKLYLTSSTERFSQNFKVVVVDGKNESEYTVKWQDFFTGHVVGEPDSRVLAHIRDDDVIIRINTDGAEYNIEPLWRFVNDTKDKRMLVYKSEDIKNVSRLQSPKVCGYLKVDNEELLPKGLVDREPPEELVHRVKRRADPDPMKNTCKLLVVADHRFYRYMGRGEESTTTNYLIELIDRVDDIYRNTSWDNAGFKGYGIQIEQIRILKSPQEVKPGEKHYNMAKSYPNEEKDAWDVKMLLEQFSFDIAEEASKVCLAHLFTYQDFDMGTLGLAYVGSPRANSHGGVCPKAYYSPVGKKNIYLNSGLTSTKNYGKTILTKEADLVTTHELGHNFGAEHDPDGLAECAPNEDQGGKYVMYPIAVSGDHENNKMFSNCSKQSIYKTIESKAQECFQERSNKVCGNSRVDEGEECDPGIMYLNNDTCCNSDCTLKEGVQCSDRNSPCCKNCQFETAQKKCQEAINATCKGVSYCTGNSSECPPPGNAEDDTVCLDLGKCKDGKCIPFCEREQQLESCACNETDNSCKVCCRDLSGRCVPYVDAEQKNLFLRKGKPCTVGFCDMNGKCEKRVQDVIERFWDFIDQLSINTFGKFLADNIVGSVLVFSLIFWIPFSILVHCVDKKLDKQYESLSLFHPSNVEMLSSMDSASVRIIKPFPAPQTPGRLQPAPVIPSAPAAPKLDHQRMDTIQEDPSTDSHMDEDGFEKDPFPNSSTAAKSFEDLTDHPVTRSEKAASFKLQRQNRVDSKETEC
Matrix metalloproteinase-9, sequence (P14780 whole entry): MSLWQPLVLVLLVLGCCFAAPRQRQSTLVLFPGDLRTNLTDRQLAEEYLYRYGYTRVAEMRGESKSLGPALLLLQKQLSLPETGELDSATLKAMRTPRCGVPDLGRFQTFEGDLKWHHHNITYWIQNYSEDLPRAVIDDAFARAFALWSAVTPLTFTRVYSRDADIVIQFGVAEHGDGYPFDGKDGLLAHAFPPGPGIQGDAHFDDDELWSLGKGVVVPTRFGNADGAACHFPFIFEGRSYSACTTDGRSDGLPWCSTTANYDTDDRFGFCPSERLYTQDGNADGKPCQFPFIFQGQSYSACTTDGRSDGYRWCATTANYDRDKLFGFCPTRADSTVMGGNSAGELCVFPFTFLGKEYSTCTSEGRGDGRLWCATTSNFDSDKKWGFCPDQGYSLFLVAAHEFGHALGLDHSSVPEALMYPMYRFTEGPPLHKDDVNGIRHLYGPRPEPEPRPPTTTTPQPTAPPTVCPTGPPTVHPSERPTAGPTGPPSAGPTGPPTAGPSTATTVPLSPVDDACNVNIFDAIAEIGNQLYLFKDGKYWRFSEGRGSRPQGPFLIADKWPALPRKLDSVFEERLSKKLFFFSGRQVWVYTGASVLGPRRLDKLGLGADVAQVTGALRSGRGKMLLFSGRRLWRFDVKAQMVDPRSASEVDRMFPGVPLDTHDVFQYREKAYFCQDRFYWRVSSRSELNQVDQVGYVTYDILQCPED

For orientation: Ki means the dissociation constant of the complex between target and ligand, obtained from inhibition or displacement. In general, IC50 refers to the concentration that inhibits the measured activity by half. What is called inhibition is the percentage by which the read-out fell short of the control. For `Cc1cc(COc2ccc(C3(N4CCCCC4)C(=O)NC(=O)NC3=O)cc2)c2ccccc2n1`, the Ki was > 4950 nM on Interstitial collagenase, > 5020 nM on Collagenase 3, > 3330 nM in experiment [2] and > 2130 nM in experiment [4]. The IC50 in experiment [1] is 855 nM. Moreover, the inhibition in experiment [3] came to 0%.
Regarding `Cc1cc(COc2ccc(C3(N4CCOCC4)C(=O)NC(=O)NC3=O)cc2)c2ccccc2n1`, the Ki was > 4950 nM at Interstitial collagenase, > 5020 nM at Collagenase 3, > 3330 nM in experiment [2] and > 2130 nM in experiment [4]. Also, in experiment [1], half-maximal inhibition (IC50) required 535 nM. The inhibition in experiment [3] amounted to 1%.
Regarding `CC(=O)c1ccc(N2CCN(C3(c4ccc(OCc5cc(C)nc6ccccc56)cc4)C(=O)NC(=O)NC3=O)CC2)cc1`, the Ki was > 4950 nM on Interstitial collagenase, > 5020 nM at Collagenase 3, > 3330 nM in experiment [2] and > 2130 nM in experiment [4]. The compound further had an IC50 in experiment [1] of 620 nM. Further, the inhibition in experiment [3] turned out to be 8%.
With `Cc1cc(COc2ccc(C3(N4CCN(C(=O)C(C)(C)C)CC4)C(=O)NC(=O)NC3=O)cc2)c2ccccc2n1`, the Ki at Interstitial collagenase was > 4950 nM; at Collagenase 3, > 5020 nM; in experiment [2] it was > 3330 nM; in experiment [4], > 2130 nM. The same compound had an IC50 in experiment [1] of 5400 nM. Further, the inhibition in experiment [3] was 0%.
As to `Cc1cc(COc2ccc(C3(C)C(=O)NC(=O)NC3=O)cc2)c2ccccc2n1`, the Ki on Interstitial collagenase is > 4950 nM; on Collagenase 3 it was 5020 nM; in experiment [2] it was > 3330 nM; in experiment [4], > 2130 nM. Moreover, in experiment [1], the IC50 was 1030 nM. In experiment [3], the inhibition worked out at 0%.
Take `CC1(c2ccc(O)cc2)C(=O)NC(=O)NC1=O`: the Ki on Interstitial collagenase is > 4950 nM; at Collagenase 3 it was > 5020 nM; in experiment [2], 2530 nM; in experiment [4] it was 850 nM. Further, the IC50 in experiment [1] is > 100000 nM. The inhibition in experiment [3] was determined as 0%.
`CCCCCCN1CCN(C2(c3ccc(OCc4cc(C)nc5ccccc45)cc3)C(=O)NC(=O)NC2=O)CC1`: the Ki on Interstitial collagenase is > 4950 nM; on Collagenase 3 it was > 5020 nM; in experiment [2] it was > 3330 nM; in experiment [4] it was > 2130 nM. In experiment [1], it took 81 nM to reach half-maximal inhibition (IC50). In experiment [3], this compound gave an inhibition of 12%.
For the compound `Cc1cc(COc2ccc3cc(C4(C)C(=O)NC(=O)NC4=O)ccc3c2)c2ccccc2n1`, the IC50 in experiment [1] was > 100000 nM. Besides, the Ki in experiment [2] turned out to be 3330 nM. In experiment [3], this compound came in with an inhibition of 1%.
Turning to `Cc1cc(COc2ccc(C3(N4CCN(c5ccc([N+](=O)[O-])cc5)CC4)C(=O)NC(=O)NC3=O)cc2)c2ccccc2n1`, the Ki at Interstitial collagenase was > 4350 nM; on Collagenase 3, 356 nM; in experiment [2], 116 nM; in experiment [4], 138 nM. This compound also returned an IC50 in experiment [1] of 2800 nM. In experiment [3], this compound gave an inhibition of 0%.
In the case of `Cc1cc(COc2ccc(C3(N4CCN(S(C)(=O)=O)CC4)C(=O)NC(=O)NC3=O)cc2)c2ccccc2n1`, the Ki on Interstitial collagenase is > 4950 nM; at Collagenase 3, > 5020 nM; in experiment [2], > 3330 nM; in experiment [4], > 2130 nM. Besides, the IC50 in experiment [1] amounted to 275 nM. Further, the inhibition in experiment [3] came out at 5%.
Consider `CC1(c2ccc(Oc3ccccc3)cc2)C(=O)NC(=O)NC1=O`, for which the figures for the Ki (at Collagenase 3; in experiment [2]; in experiment [4]) were 65 nM, 80 nM and 52 nM, respectively.
As for `Cc1cc(COc2ccc(C3(N4CCN(Cc5ccccc5)CC4)C(=O)NC(=O)NC3=O)cc2)c2ccccc2n1`, the Ki was > 4950 nM on Interstitial collagenase, > 5020 nM at Collagenase 3, > 3330 nM in experiment [2] and > 2130 nM in experiment [4]. This compound also showed an IC50 in experiment [1] of 195 nM. The compound further came in with an inhibition in experiment [3] of 5%.
`CC1(c2ccc(OCc3ccccc3)cc2)C(=O)NC(=O)NC1=O`: the Ki at Interstitial collagenase was > 4950 nM; on Collagenase 3, 4020 nM; in experiment [2], 600 nM; in experiment [4] it was > 2130 nM. In addition, the IC50 in experiment [1] is > 100000 nM. This compound also displayed an inhibition in experiment [3] of 0%.
Consider `Cc1cc(COc2ccc(C3(N4CCN(C(=O)OC(C)(C)C)CC4)C(=O)NC(=O)NC3=O)cc2)c2ccccc2n1`, for which the Ki on Interstitial collagenase is > 4950 nM; on Collagenase 3, > 5020 nM; in experiment [2], > 3330 nM; in experiment [4], > 2130 nM. Moreover, in experiment [1], the IC50 turned out to be 160 nM. The same compound gave an inhibition in experiment [3] of 10%.
As for `Cc1cc(COc2ccc(C3(N4CCN(CCc5ccccc5)CC4)C(=O)NC(=O)NC3=O)cc2)c2ccccc2n1`, the Ki on Interstitial collagenase is > 4950 nM; on Collagenase 3, 95 nM; in experiment [2], 83 nM; in experiment [4], 85 nM. Also, inhibition in experiment [1] was half-maximal at 84 nM (IC50). In experiment [3], the inhibition amounted to 38%.
For the compound `Cc1cc(COc2ccc(C3(N4CCN(C(C)C)CC4)C(=O)NC(=O)NC3=O)cc2)c2ccccc2n1`, the Ki was > 4950 nM on Interstitial collagenase, > 5020 nM on Collagenase 3, > 3330 nM in experiment [2] and > 2130 nM in experiment [4]. Also, in experiment [1], it took 96 nM to reach half-maximal inhibition (IC50). Moreover, the inhibition in experiment [3] turned out to be 0%.
As for `Cc1cc(COc2ccc(C3(N4CCN(C)CC4)C(=O)NC(=O)NC3=O)cc2)c2ccccc2n1`, the Ki at Interstitial collagenase was > 4950 nM; on Collagenase 3, > 5020 nM; in experiment [2], > 3330 nM; in experiment [4] it was > 2130 nM. The same compound displayed an IC50 in experiment [1] of 91 nM. The compound also yielded an inhibition in experiment [3] of 37%.
`Cc1cc(COc2ccc(C3(N4CCN(CC(C)(C)C)CC4)C(=O)NC(=O)NC3=O)cc2)c2ccccc2n1`: the Ki is > 4950 nM on Interstitial collagenase, > 5020 nM on Collagenase 3, > 3330 nM in experiment [2] and > 2130 nM in experiment [4]. Further, the IC50 in experiment [1] was 160 nM. Moreover, the inhibition in experiment [3] amounted to 10%.
As for `Cc1cc(COc2ccc(C3(N4CCN(CCCc5ccccc5)CC4)C(=O)NC(=O)NC3=O)cc2)c2ccccc2n1`, the Ki is > 4950 nM at Interstitial collagenase, 5020 nM on Collagenase 3, 3100 nM in experiment [2] and 2040 nM in experiment [4]. In experiment [1], this compound came in with an IC50 of 110 nM. In experiment [3], the inhibition was 12%.
For `Cc1cc(COc2ccc(C3(N4CCNCC4)C(=O)NC(=O)NC3=O)cc2)c2ccccc2n1`, the Ki was > 4950 nM on Interstitial collagenase, > 5020 nM at Collagenase 3, > 3330 nM in experiment [2] and > 2130 nM in experiment [4]. Half-maximal inhibition in experiment [1] (IC50) was put at 1100 nM. For the same compound, the inhibition in experiment [3] is 0%.
